Laboratory results from US20250313535A1, “ALPHA 4 BETA 7 INTEGRIN MODULATORS AND USES THEREOF” (DICE MOLECULES SV, INC., priority 2022, published 2025).
Where two headings read alike, the source gives them in different places.

Assays:
Assay type in all cases: cell-based
α4β1 integrin = α4β1 integrin (Homo sapiens (Human), UniProt P05556+P13612); assay: Integrin Adhesion Assay: Protocol 5 (VCAM-coated plate, RPMI-8866 cells with stable LOF mutation of the ITGB7 gene)
How it was run: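 RPMI-8866 B cells with CRISPR/Cas9 ITGB7 knockout (clonal, verified by flow cytometry) adhered to VCAM-coated wells for 1 h at 37° C in HEPES/NaCl buffer with 1 mM MnCl2, 0.1 mM CaCl2, 1% BSA, 1% DMSO. Bound cells quantified by CellTiter-Glo luminescence after washing; % inhibition versus DMSO and control, 4-parameter fit.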

α4β7 integrin [1] = biological target: T1, α4β7 integrin (Homo sapiens (Human), UniProt P13612+P26010); assay: Integrin Adhesion Assay: Protocol 4 (MAdCAM-coated plate, RPMI-8866 cells with stable LOF mutation of the ITGB1 gene)
How it was run: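 RPMI-8866 cells with CRISPR/Cas9 knockout of ITGB1 (2×10^6/mL) were added to MAdCAM-coated wells with compound (1% DMSO) in HEPES/NaCl buffer with 1 mM MnCl2, 0.1 mM CaCl2 and 1% BSA, then incubated 1 h at 37 °C. After four washes, adherent cells were quantified by CellTiter-Glo luminescence. Percent inhibition versus DMSO and control compound was fitted to 4-parameter curves.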

α4β7 integrin [2] = biological target: T1, α4β7 integrin; assay: Integrin Adhesion Assay: Protocol 1 (MAdCAM-coated plate, RPMI-8866 cells, CellTiter GLO readout)
How it was run: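 RPMI-8866 cells (2×10^6 per mL) added with compounds (1% DMSO) to MAdCAM-coated wells blocked in HEPES/NaCl buffer with 1 mM MnCl2, 0.1 mM CaCl2, 1% BSA; 1 h at 37° C, 5% CO2. After four washes, bound cells read by CellTiter GLO luminescence; % inhibition vs DMSO and control wells, 4-parameter fit.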

[3] = RPMI-8866 cells with stable LOF mutation of the ITGB7 gene, read-out: Mean IC50 α4β1 KO^b
[4] = RPMI-8866 cells with stable LOF mutation of the ITGB1 gene, read-out: Mean IC50 α4β7 KO^a
[5] = Protocol 5, RPMI-8866 cells with LOF mutation of ITGB7, VCAM, read-out: Mean IC50 α4β1 KO
[6] = Protocol 4, RPMI-8866 cells with LOF mutation of ITGB1, MAdCAM, read-out: Mean IC50 α4β7 KO

Sequence of α4β1 integrin (P13612 34-1032): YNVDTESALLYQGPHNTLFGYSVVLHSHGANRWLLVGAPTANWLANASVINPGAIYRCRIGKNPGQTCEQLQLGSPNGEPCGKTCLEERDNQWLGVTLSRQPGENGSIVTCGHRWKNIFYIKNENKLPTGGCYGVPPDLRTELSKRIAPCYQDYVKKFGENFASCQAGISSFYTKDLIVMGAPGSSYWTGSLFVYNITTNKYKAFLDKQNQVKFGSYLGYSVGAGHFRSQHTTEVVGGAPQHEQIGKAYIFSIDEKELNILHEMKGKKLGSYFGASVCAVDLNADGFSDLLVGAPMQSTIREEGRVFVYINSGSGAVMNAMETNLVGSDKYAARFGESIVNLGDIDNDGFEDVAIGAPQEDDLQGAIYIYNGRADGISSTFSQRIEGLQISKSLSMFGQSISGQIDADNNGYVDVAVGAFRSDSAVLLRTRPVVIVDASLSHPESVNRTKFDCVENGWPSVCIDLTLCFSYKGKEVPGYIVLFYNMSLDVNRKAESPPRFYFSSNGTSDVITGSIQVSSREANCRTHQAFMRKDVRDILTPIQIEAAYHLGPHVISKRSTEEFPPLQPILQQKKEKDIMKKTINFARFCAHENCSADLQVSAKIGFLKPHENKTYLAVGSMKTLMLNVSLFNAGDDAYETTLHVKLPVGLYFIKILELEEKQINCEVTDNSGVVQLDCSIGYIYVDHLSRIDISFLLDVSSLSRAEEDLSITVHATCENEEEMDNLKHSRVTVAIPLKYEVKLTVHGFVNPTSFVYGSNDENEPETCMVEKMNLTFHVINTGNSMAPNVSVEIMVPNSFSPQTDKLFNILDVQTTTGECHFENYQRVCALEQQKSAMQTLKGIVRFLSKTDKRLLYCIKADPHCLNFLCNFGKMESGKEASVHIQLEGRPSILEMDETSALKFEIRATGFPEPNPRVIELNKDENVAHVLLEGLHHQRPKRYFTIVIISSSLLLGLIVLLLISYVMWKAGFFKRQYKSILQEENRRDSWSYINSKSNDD
Sequence of α4β1 integrin (P05556 21-798): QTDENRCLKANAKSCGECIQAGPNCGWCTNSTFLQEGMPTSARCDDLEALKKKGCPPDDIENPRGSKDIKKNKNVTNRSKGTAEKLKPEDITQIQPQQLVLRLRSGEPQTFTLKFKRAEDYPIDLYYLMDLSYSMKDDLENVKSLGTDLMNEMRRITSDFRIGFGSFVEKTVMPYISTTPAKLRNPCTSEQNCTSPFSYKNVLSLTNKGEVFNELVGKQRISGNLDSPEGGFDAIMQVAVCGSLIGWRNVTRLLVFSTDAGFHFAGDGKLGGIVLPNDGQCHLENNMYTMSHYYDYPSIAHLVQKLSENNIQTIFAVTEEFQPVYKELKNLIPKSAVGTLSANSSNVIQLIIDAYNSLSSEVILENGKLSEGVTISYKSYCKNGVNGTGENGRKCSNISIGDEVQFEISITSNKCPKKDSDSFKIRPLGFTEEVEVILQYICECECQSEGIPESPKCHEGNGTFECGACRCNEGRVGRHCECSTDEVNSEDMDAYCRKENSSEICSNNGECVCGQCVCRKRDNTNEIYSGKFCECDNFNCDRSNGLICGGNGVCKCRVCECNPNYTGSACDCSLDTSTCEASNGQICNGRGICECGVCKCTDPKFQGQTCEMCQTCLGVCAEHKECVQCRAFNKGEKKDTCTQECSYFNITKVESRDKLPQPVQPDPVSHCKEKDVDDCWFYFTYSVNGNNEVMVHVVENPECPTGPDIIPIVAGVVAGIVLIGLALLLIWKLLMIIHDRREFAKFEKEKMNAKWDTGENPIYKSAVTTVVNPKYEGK
T1 sequence (P13612 34-1032): as the sequence (P13612 34-1032) above
T1 sequence (P26010 20-798): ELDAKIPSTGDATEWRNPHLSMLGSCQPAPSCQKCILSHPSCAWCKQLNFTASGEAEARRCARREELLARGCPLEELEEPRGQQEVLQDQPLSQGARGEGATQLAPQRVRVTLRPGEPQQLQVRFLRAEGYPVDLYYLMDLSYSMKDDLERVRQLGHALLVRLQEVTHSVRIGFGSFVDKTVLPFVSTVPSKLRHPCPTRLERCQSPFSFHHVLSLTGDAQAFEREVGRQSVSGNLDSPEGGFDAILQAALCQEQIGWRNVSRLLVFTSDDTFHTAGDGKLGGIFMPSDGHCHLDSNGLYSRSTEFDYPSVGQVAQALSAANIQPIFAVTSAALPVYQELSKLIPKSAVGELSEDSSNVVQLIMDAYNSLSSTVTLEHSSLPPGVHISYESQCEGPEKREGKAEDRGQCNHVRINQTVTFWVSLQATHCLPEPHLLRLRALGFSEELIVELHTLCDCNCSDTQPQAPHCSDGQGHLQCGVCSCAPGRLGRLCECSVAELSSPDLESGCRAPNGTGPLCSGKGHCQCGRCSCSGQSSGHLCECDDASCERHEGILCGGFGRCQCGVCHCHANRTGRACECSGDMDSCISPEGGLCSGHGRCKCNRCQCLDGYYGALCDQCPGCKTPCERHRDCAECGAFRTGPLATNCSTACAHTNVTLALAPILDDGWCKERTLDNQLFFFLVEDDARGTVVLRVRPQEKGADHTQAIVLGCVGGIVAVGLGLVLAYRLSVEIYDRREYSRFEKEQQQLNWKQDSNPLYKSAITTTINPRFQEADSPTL

IC50 (α4β1 integrin; [3]) [nM]	IC50 (α4β7 integrin [1]; [4]) [nM]	IC50 (α4β7 integrin [2]) [nM]	IC50 (α4β1 integrin; [5]) [nM]	IC50 (α4β7 integrin [1]; [6]) [nM]	IC50 (α4β7 integrin [2]; protocol not given) [nM]	SMILES
100 to 1000	< 10	< 10	–	–	–	COc1ccc(CN(C)C)c(OC)c1-c1cccc2c(C[C@H](NC(=O)c3c(C)cccc3F)C(=O)O)cccc12 [Compound 450]
> 1000	10 to 100	10 to 100	–	–	–	Cn1c(=O)c(-c2cccc3c(C[C@H](NC(=O)[C@]4(C)CC[C@@H](N5CCS(=O)(=O)CC5)CC4)C(=O)O)cccc23)c(C(F)(F)F)c2ccccc21 [Compound 403]
> 1000	100 to 1000	100 to 1000	–	–	–	Cn1c(=O)c(-c2cccc3c(C[C@H](NC(=O)c4c(F)cc(N5CCCCC5)cc4F)C(=O)O)cccc23)c(C(F)(F)F)c2ccccc21 [Compound 354]
100 to 1000	< 10	< 10	–	–	–	CCOCc1cc(OC)c(-c2cccc3c(C[C@H](NC(=O)c4c(C)cccc4F)C(=O)O)cccc23)c(OC)c1 [Compound 448]
> 1000	100 to 1000	100 to 1000	–	–	–	CN(C)c1ccc2c(c1)c(C(F)(F)F)c(-c1cccc3c(C[C@H](NC(=O)[C@]4(C)CC[C@@H](N5CCC(F)(F)CC5)CC4)C(=O)O)cccc13)c(=O)n2C [Compound 411]
> 1000	10 to 100	10 to 100	–	–	–	Cc1cccc(F)c1C(=O)N[C@@H](Cc1cccc2c(-c3c(C(F)(F)F)c4ccccc4n(C)c3=O)cccc12)C(=O)O [Compound 355]
> 1000	10 to 100	10 to 100	–	–	–	Cc1cccc(F)c1C(=O)N[C@@H](Cc1cccc2c(-c3c(C(F)(F)F)ccn(C)c3=O)cccc12)C(=O)O [Compound 460]
–	–	–	> 1000	> 1000	100 to 1000	CN(C)c1ccc2c(C(F)(F)F)c(-c3cccc4c(C[C@H](NC(=O)c5c(F)cccc5F)C(=O)O)cccc34)c(=O)n(C)c2c1 [Compound 719]
> 1000	100 to 1000	100 to 1000	–	–	–	Cc1cccc(C)c1-c1ccc(F)c(C(=O)N[C@@H](Cc2cccc3c(-c4c(C(F)(F)F)c5ccccc5n(C)c4=O)cccc23)C(=O)O)c1F [Compound 307]
–	–	–	100 to 1000	10 to 100	< 10	CN(C)Cc1ccc2c(c1)c(C(F)(F)F)c(-c1cccc3c(C[C@H](NC(=O)c4c(F)cc(C(F)(F)F)cc4F)C(=O)O)cccc13)c(=O)n2C [Compound 699]
–	–	–	100 to 1000	< 10	< 10	CN(C)Cc1ccc2c(c1)c(C(F)(F)F)c(-c1cccc3c(C[C@H](NC(=O)c4c(F)cccc4F)C(=O)O)cccc13)c(=O)n2C [Compound 697]
> 1000	10 to 100	10 to 100	–	–	–	CN(C)Cc1cccc2c(-c3cccc4c(C[C@H](NC(=O)[C@]5(C)CC[C@H](N6CCOC[C@@H]6C(F)(F)F)CC5)C(=O)O)cccc34)nccc12 (single isomer, unassigned) [Compound 419]
> 1000	10 to 100	10 to 100	–	–	–	CN(C)c1ccc2c(c1)c(C(F)(F)F)c(-c1cccc3c(C[C@H](NC(=O)C4(C(F)(F)F)CCN(CC(F)(F)F)CC4)C(=O)O)cccc13)c(=O)n2C [Compound 454]
> 1000	10 to 100	10 to 100	–	–	–	Cc1c(F)ccc(F)c1C(=O)N[C@@H](Cc1cccc2c(-c3c(C(F)(F)F)c4ccccc4n(C)c3=O)cccc12)C(=O)O [Compound 444]
–	100 to 1000	100 to 1000	–	–	–	Cn1c(=O)c(-c2cccc3c(C[C@H](NC(=O)c4c(F)cc(C5CCCOC5)cc4F)C(=O)O)cccc23)c(C(F)(F)F)c2ccccc21 (stereo partly drawn) [Compound 374]
> 1000	100 to 1000	100 to 1000	–	–	–	Cc1cccc(F)c1C(=O)N[C@@H](Cc1cccc2c(-c3c(C(F)(F)F)c4cc(N(C)C)ccc4n(C)c3=O)cccc12)C(=O)O [Compound 449]
–	100 to 1000	100 to 1000	–	–	–	CN(C)c1ccc2c(c1)c(C(F)(F)F)c(-c1cccc3c(C[C@H](NC(=O)[C@]4(C)CC[C@H](N5CCOC[C@@H]5C(F)(F)F)CC4)C(=O)O)cccc13)c(=O)n2C (single isomer, unassigned) [Compound 410]
100 to 1000	< 10	< 10	–	–	–	COc1ccc(CN(C)C)c(OC)c1-c1cccc2c(C[C@H](NC(=O)c3c(F)cccc3CN3CCC(F)(F)CC3)C(=O)O)cccc12 [Compound 452]
–	100 to 1000	100 to 1000	–	–	–	Cn1c(=O)c(-c2cccc3c(C[C@H](NC(=O)[C@]4(C(F)(F)F)CC[C@H](N5CCOC[C@@H]5C(F)(F)F)CC4)C(=O)O)cccc23)c(C(F)(F)F)c2ccccc21 [Compound 423]

IC50 (α4β1 integrin; [3]) [nM]	IC50 (α4β7 integrin [1]; [4]) [nM]	IC50 (α4β7 integrin [2]) [nM]	IC50 (α4β1 integrin; [5]) [nM]	IC50 (α4β7 integrin [1]; [6]) [nM]	IC50 (α4β7 integrin [2]; protocol not given) [nM]	SMILES
–	10 to 100	100 to 1000	–	–	–	Cn1ccc(C(F)(F)F)c(-c2cccc3c(C[C@H](NC(=O)c4c(F)cc(N5CCOC[C@H]5c5ccccc5)cc4F)C(=O)O)cccc23)c1=O [Compound 438]
–	100 to 1000	100 to 1000	–	–	–	Cn1c(=O)c(-c2cccc3c(C[C@H](NC(=O)c4c(F)cc(N5CCOC(CN6CCCC6)C5)cc4F)C(=O)O)cccc23)c(C(F)(F)F)c2ccccc21 (stereo partly drawn) [Compound 339]
–	100 to 1000	100 to 1000	–	–	–	Cn1ccc(C(F)(F)F)c(-c2cccc3c(C[C@H](NC(=O)c4c(F)cc(N5CCOCC5c5ccc(C(F)(F)F)cc5)cc4F)C(=O)O)cccc23)c1=O (stereo partly drawn) [Compound 442]
–	100 to 1000	100 to 1000	–	–	–	Cn1c(=O)c(-c2cccc3c(C[C@H](NC(=O)c4c(F)cc(N5CC(C(F)(F)F)C5)cc4F)C(=O)O)cccc23)c(C(F)(F)F)c2ccccc21 [Compound 388]
–	100 to 1000	100 to 1000	–	–	–	Cn1c(=O)c(-c2cccc3c(C[C@H](NC(=O)c4c(F)cc(N5CCC(CO)C5)cc4F)C(=O)O)cccc23)c(C(F)(F)F)c2ccccc21 (stereo partly drawn) [Compound 462]
–	100 to 1000	100 to 1000	–	–	–	CN(C)CC1CN(c2cc(F)c(C(=O)N[C@@H](Cc3cccc4c(-c5c(C(F)(F)F)c6ccccc6n(C)c5=O)cccc34)C(=O)O)c(F)c2)CCO1 (stereo partly drawn) [Compound 335]
–	–	–	–	> 1000	100 to 1000	Cc1cccc(C)c1-c1cc(C(=O)N[C@@H](Cc2cccc3c(-n4c(=O)cc(CCN5CC(F)C5)n(C)c4=O)cccc23)C(=O)O)c(F)c(C(F)(F)F)c1 [Compound 1056]
100 to 1000	10 to 100	10 to 100	–	–	–	Cn1c(=O)c(-c2cccc3c(C[C@H](NC(=O)C4(C(F)(F)F)CCN(CC(F)(F)F)CC4)C(=O)O)cccc23)c(C(F)(F)F)c2ccccc21 [Compound 352]
–	100 to 1000	100 to 1000	–	–	–	Cn1c(=O)c(-c2cccc3c(C[C@H](NC(=O)c4c(F)cc(N5CC6(COC6)C5)cc4F)C(=O)O)cccc23)c(C(F)(F)F)c2ccccc21 [Compound 426]
> 1000	10 to 100	10 to 100	–	–	–	Cn1c(=O)c(-c2cccc3c(C[C@H](NC(=O)c4c(F)cccc4CN4CCC(F)(F)C4)C(=O)O)cccc23)c(C(F)(F)F)c2ccccc21 [Compound 456]
> 1000	< 10	< 10	–	–	–	CN(C)Cc1cccc2c(-c3cccc4c(C[C@H](NC(=O)c5c(F)cc(N6CCOC[C@@H]6C(F)(F)F)cc5CN5CCCC5)C(=O)O)cccc34)nccc12 [Compound 433]
–	100 to 1000	100 to 1000	–	–	–	Cn1c(=O)c(-c2cccc3c(C[C@H](NC(=O)c4c(F)cc(N5CC(F)(F)OC(F)(F)C5)cc4F)C(=O)O)cccc23)c(C(F)(F)F)c2ccccc21 [Compound 341]
–	100 to 1000	100 to 1000	–	–	–	CN(C)CCc1cc(F)c(C(=O)N[C@@H](Cc2cccc3c(-c4c(C(F)(F)F)c5ccccc5n(C)c4=O)cccc23)C(=O)O)c(F)c1 [Compound 367]
> 1000	100 to 1000	10 to 100	–	–	–	Cn1c(=O)c(-c2cccc3c(C[C@H](NC(=O)[C@]4(C(F)(F)F)CC[C@@H](N5CCOC[C@@H]5C(F)(F)F)CC4)C(=O)O)cccc23)c(C(F)(F)F)c2ccccc21 [Compound 422]
–	–	–	> 1000	10 to 100	10 to 100	O=C(N[C@@H](Cc1cccc2c(-n3cccc(C(F)(F)F)c3=O)cccc12)C(=O)O)c1c(F)cccc1F [Compound 1054]
> 1000	100 to 1000	100 to 1000	–	–	–	Cn1c(=O)c(-c2cccc3c(C[C@H](NC(=O)c4c(F)cc(C5CCOCC5)cc4F)C(=O)O)cccc23)c(C(F)(F)F)c2ccccc21 [Compound 373]
–	100 to 1000	100 to 1000	–	–	–	Cn1c(=O)c(-c2cccc3c(C[C@H](NC(=O)c4c(F)cc(C5CCNC5)cc4F)C(=O)O)cccc23)c(C(F)(F)F)c2ccccc21 (stereo partly drawn) [Compound 366]
–	100 to 1000	100 to 1000	–	–	–	Cn1c(=O)c(-c2cccc3c(C[C@H](NC(=O)C45CC(C(F)F)(C4)C5)C(=O)O)cccc23)c(C(F)(F)F)c2ccccc21 [Compound 390]
> 1000	10 to 100	100 to 1000	–	–	–	Cc1cccnc1-c1ccc(F)c(C(=O)N[C@@H](Cc2cccc3c(-c4c(C(F)(F)F)c5ccccc5n(C)c4=O)cccc23)C(=O)O)c1F [Compound 316]
